The target in assay [1] is human TYK2 (JH2domain-pseudokinase) (Homo sapiens (Human), UniProt P29597). Briefly: TYK2 JH2 Domain Binding Assay (KINOMEscan). The method, boiled down: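 Displacement of a DNA-tagged TYK2 JH2 fusion (human, aa G556–D888, HEK293 extract, <0.1 nM) from ligand-coated beads over 1 h at RT; binding buffer PBS/0.05% Tween 20/10 mM DTT/0.1% BSA.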
For another assay, the target named is Tyk2 kinase domain (DH1) (Homo sapiens (Human), UniProt P29597). Briefly: Tyk2 Radioactive Kinase Assay. The note with it: for inhibition at 10 µM: read-out: Tyk2 JH1% Inhibition @ 10 μM. The class given is biochemical. The method, boiled down:
(§1)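 Compounds were tested at a single concentration of 10 μM in a radiometric kinase format against each isolated kinase domain. Activity is reported as percent inhibition at that concentration.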

A further assay concerns the target JAK2 kinase domain (JH1) (Homo sapiens (Human), UniProt O60674). Briefly: JAK2 Radioactive Kinase Assay. The class given is biochemical. To be noted: for inhibition at 10 µM: read-out: JAK2 JH1% Inhibition @ 10 μM. The method, boiled down: as §1
Assay [2] deals with Tyk2/JAK2 (heterodimeric complex) (Homo sapiens (Human), UniProt P29597). Briefly: IL-12 Induced pSTAT4 in Human PBMC. The class given is cell-based. To be noted: 1.7 ng/mL IL-12. An excerpt:
The IL-12 Induced pSTAT4 assay evaluates the inhibition of IL-12 induced STAT4 phophorylation mediated by Tyk2/JAK2 (heterodimeric complex).

Assay [3] has as its target JAK2/JAK2 homdimeric complex (Homo sapiens (Human), UniProt O60674). In words: GM-CSF Induced pSTAT5 in Human PBMC. It is filed as cell-based. The note with it: GM-CSF 5 ng/mL for 20 minutes, pSTAT5 by MSD, read-out: PBMC_GMCSF_pSTAT5 IC50.

pIC50, pKd: −log10 of the molar value. Bounds are passed on as bounds.

As usually defined, the pKd is the negative decadic logarithm of the Kd, by convention in mol/L. A lower pKd goes with a large Kd. One may read the inhibition as the percentage by which the read-out fell short of the control. By pIC50 is commonly meant −log10 of the IC50, conventionally taken in molar units.

Chain of human TYK2 (JH2domain-pseudokinase) (P29597 556-888): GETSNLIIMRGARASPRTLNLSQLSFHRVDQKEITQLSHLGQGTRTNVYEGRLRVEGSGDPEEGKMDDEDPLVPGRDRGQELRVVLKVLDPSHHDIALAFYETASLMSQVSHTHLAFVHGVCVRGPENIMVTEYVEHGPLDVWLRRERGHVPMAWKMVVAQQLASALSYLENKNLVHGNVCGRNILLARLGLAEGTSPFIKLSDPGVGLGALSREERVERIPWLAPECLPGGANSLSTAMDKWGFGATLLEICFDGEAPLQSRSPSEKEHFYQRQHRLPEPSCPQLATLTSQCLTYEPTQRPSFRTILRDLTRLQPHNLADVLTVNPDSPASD
Chain of Tyk2/JAK2 (heterodimeric complex) (P29597 whole entry, other chains not shown): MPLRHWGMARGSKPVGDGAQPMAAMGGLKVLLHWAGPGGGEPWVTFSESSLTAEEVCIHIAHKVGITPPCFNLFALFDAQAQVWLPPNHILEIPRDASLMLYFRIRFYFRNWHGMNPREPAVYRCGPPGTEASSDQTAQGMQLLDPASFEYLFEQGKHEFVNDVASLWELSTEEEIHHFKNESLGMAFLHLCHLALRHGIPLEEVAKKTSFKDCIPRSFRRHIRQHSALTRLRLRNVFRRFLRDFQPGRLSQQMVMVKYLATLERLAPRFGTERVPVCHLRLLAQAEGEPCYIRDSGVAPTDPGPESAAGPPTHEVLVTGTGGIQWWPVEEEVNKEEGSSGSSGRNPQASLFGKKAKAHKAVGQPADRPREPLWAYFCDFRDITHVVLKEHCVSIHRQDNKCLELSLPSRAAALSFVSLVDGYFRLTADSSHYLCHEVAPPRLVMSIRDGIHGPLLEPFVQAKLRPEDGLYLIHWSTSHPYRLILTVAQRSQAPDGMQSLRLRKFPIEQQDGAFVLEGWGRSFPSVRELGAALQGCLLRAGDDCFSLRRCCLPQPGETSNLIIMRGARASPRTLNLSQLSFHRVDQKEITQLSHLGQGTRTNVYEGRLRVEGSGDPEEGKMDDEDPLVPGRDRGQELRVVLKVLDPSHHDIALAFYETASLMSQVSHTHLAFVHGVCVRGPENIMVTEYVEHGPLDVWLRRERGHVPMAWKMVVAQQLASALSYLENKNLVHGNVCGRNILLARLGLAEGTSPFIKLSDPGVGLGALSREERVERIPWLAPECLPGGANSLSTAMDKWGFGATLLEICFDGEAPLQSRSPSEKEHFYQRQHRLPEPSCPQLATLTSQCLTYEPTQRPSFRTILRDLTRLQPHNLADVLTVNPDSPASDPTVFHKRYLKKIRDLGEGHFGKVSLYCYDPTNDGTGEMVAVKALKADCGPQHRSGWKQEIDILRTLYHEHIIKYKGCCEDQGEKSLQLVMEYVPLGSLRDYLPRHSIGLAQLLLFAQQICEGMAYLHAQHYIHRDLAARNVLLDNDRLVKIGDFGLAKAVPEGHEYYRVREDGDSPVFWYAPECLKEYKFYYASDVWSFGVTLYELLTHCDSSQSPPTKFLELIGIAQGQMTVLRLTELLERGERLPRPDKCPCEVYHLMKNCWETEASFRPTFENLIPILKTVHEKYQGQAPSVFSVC
Chain of Tyk2 kinase domain (DH1) (P29597 897-1176): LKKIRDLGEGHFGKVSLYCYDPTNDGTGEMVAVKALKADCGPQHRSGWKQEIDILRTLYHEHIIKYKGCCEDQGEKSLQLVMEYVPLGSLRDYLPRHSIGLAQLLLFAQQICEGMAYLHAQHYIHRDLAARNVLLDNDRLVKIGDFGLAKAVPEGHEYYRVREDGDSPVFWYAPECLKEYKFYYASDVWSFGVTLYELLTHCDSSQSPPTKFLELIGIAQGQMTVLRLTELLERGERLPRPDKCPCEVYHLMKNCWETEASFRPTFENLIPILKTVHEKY
Chain of JAK2 kinase domain (JH1) (O60674 849-1124): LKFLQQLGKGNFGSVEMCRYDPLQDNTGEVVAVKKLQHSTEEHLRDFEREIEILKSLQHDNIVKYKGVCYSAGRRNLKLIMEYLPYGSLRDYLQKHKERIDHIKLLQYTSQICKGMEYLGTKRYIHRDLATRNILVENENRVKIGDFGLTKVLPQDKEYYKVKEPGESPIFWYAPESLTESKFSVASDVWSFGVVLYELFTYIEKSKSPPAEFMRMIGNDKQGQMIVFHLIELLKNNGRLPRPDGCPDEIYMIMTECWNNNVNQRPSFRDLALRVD
Chain of JAK2/JAK2 homdimeric complex (O60674 whole entry): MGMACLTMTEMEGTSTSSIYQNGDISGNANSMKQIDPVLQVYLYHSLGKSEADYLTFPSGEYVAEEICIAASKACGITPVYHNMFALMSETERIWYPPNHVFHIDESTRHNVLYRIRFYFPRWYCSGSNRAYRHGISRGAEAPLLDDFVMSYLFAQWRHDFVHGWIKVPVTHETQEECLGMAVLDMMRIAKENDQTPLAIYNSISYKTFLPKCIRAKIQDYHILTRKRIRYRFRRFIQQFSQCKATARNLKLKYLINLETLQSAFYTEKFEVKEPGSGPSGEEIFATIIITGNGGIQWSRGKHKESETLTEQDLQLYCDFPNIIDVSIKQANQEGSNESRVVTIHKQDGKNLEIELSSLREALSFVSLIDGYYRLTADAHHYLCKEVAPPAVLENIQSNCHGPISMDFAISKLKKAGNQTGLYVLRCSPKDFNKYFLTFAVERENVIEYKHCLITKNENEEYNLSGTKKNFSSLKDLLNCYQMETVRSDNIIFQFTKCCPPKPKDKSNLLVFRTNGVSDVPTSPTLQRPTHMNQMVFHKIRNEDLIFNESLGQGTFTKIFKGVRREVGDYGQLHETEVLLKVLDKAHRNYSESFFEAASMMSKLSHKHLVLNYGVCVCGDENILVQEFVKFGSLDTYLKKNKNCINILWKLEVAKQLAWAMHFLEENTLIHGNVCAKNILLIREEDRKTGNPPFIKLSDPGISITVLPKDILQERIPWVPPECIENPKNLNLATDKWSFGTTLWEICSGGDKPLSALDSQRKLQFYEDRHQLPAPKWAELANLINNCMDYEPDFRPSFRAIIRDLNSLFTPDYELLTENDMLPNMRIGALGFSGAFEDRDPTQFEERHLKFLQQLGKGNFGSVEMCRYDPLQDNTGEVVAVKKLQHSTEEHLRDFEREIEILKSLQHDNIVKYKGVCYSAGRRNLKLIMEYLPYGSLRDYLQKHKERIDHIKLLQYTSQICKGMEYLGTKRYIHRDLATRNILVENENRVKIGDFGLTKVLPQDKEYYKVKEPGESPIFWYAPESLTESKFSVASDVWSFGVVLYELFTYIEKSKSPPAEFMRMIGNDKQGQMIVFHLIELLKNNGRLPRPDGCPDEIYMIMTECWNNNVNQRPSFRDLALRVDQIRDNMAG
Chain of JAK2/JAK2 homdimeric complex (P32927 17-897 partner): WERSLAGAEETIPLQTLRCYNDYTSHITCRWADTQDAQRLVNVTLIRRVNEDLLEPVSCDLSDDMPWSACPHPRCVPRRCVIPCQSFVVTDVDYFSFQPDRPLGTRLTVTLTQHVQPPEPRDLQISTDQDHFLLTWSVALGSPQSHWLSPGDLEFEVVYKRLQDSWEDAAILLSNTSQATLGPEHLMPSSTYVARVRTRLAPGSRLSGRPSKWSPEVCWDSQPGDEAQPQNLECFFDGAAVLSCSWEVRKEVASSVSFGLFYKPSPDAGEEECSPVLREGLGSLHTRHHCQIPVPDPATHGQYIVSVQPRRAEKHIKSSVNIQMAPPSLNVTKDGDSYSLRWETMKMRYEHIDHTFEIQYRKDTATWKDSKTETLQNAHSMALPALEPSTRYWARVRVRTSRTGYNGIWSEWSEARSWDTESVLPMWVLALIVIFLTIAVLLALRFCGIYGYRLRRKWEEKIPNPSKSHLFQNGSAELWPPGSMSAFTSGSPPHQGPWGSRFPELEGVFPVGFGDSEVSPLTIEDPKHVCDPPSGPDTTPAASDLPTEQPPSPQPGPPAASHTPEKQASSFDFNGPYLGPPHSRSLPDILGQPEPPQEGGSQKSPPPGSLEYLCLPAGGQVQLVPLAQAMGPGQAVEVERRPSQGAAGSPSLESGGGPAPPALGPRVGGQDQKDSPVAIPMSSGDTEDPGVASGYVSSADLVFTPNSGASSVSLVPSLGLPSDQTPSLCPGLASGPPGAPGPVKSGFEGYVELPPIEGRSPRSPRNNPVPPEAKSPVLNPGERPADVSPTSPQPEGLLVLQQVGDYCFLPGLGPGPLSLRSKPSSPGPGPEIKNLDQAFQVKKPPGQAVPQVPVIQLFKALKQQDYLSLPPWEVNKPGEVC

In assay [1], `CNc1cc(Nc2cccn(C3CCCOC3)c2=O)nc2c(C(=O)NC3CCC3)cnn12` (racemic) [I-324] had a pKd above 9.70. Further, the inhibition at 10 µM on Tyk2 kinase domain (DH1) (compound at 10 μM, ATP 10 μM) was below 50%; at JAK2 kinase domain (JH1) (compound at 10 μM, ATP 10 μM) it was below 50%. Moreover, the pIC50 in assay [2] was above 7.00; in assay [3] it was below 4.30.

Consider `CNc1cc(Nc2cccc3ocnc23)nc2c(C(=O)N[C@@H]3CC[C@H]3O)cnn12` (racemic) [I-756, 5-(benzo[d]oxazol-4-ylamino)-N-(2-hydroxycyclobutyl)-7-(methylamino) pyrazolo[1,5-a]pyrimidine-3-carboxamide], for which the negative logarithm of the Kd (pKd) in assay [1] was above 9.70. The inhibition at 10 µM was below 50% on Tyk2 kinase domain (DH1) (compound at 10 μM, ATP 10 μM) and below 50% on JAK2 kinase domain (JH1) (compound at 10 μM, ATP 10 μM). Besides, the figures for the negative-log IC50 (pIC50) in assay [2] and in assay [3] were 6.30 to 7.00 and below 4.30, respectively.

As for `CNc1cc(Nc2cccn(-c3ccn(C4CC4)n3)c2=O)nc2c(C(=O)N[C@@H]3C[C@@H]3F)cnn12` (stereo in doubt) [I-106, 5-((1-(1-cyclopropyl-1H-pyrazol-3-yl)-2-oxo-1,2-dihydropyridin-3-yl)amino)-N-((1R,2S)-2-fluorocyclopropyl)-7-(methylamino)pyrazolo[1,5-a]pyrimidine-3-carboxamide], the negative-log Kd (pKd) in assay [1] is above 9.70. Moreover, the inhibition at 10 µM on Tyk2 kinase domain (DH1) (compound at 10 μM, ATP 10 μM) is below 50%; at JAK2 kinase domain (JH1) (compound at 10 μM, ATP 10 μM), below 50%. Also, the negative logarithm of the IC50 (pIC50) is above 7.00 in assay [2] and below 4.90 in assay [3].

For `CNc1cc(Nc2cccn(-c3ccnc(C)n3)c2=O)nc2c(C(=O)N[C@@H]3C[C@@H]3F)cnn12` (stereo in doubt) [I-124, N-((1R,2S)-2-fluorocyclopropyl)-7-(methylamino)-5-((1-(2-methylpyrimidin-4-yl)-2-oxo-1,2-dihydropyridin-3-yl)amino)pyrazolo[1,5-a]pyrimidine-3-carboxamide], the negative-log Kd (pKd) in assay [1] is above 9.70. Besides, the inhibition at 10 µM on Tyk2 kinase domain (DH1) (compound at 10 μM, ATP 10 μM) was below 50%; at JAK2 kinase domain (JH1) (compound at 10 μM, ATP 10 μM), below 50%. In addition, the pIC50 in assay [2] was above 7.00; in assay [3], below 4.90.

For `CNc1cc(-c2cn(C(C)C)c3ncccc23)nc2c(C(=O)N[C@@H]3C[C@@H]3F)cnn12` (stereo in doubt) [I-225, N-((1R,2S)-2-fluorocyclopropyl)-5-(1-isopropyl-1H-pyrrolo[2,3-b]pyridin-3-yl)-7-(methylamino)pyrazolo[1,5-a]pyrimidine-3-carboxamide], in assay [1], the negative logarithm of the Kd (pKd) is above 9.70. Besides, the inhibition at 10 µM on Tyk2 kinase domain (DH1) (compound at 10 μM, ATP 10 μM) is below 50%; on JAK2 kinase domain (JH1) (compound at 10 μM, ATP 10 μM), below 50%. The negative-log IC50 (pIC50) was above 7.00 in assay [2] and below 4.30 in assay [3].

`CNc1cc(Nc2cccnc2OC)nc2c(C(=O)N[C@@H]3CC[C@H]3O)cnn12` (stereo in doubt) [I-363, N-((1R,2R)-2-hydroxycyclobutyl)-5-((2-methoxypyridin-3-yl)amino)-7-(methylamino)pyrazolo[1,5-a]pyrimidine-3-carboxamide] had a negative logarithm of the Kd (pKd) in assay [1] above 9.70. The inhibition at 10 µM at Tyk2 kinase domain (DH1) (compound at 10 μM, ATP 10 μM) is below 50%; on JAK2 kinase domain (JH1) (compound at 10 μM, ATP 10 μM), 50 to 70%. Further, the pIC50 in assay [2] was above 7.00; in assay [3], below 4.30.

In the case of `CNc1cc(Nc2cccnc2OC2CC2)nc2c(C(=O)N[C@@H]3CC[C@H]3O)cnn12` (stereo in doubt) [I-366, 5-((2-cyclopropoxypyridin-3-yl)amino)-N-((1R,2R)-2-hydroxycyclobutyl)-7-(methylamino)pyrazolo[1,5-a]pyrimidine-3-carboxamide], the pKd in assay [1] is above 9.70. In addition, the inhibition at 10 µM is below 50% at Tyk2 kinase domain (DH1) (compound at 10 μM, ATP 10 μM) and below 50% on JAK2 kinase domain (JH1) (compound at 10 μM, ATP 10 μM). Moreover, the pIC50 in assay [2] was above 7.00; in assay [3] it was below 4.30.

`[2H]C([2H])([2H])Nc1cc(Nc2cccnc2OC)nc2c(C(=O)N[C@@H]3C[C@@H]3F)cnn12` (stereo in doubt) [I-374, N-((1R,2S)-2-fluorocyclopropyl)-5-((2-methoxypyridin-3-yl)amino)-7-((methyl-d3)amino)pyrazolo[1,5-a]pyrimidine-3-carboxamide] gave a negative logarithm of the Kd (pKd) in assay [1] above 9.70. Also, the inhibition at 10 µM at Tyk2 kinase domain (DH1) (compound at 10 μM, ATP 10 μM) was below 50%; at JAK2 kinase domain (JH1) (compound at 10 μM, ATP 10 μM) it was below 50%. In addition, the negative logarithm of the IC50 (pIC50) is above 7.00 in assay [2] and below 4.30 in assay [3].

For the compound `[2H]C([2H])([2H])Nc1cc(Nc2cccnc2OC2CC2)nc2c(C(=O)N[C@@H]3C[C@@H]3F)cnn12` (stereo in doubt) [I-375, 5-((2-cyclopropoxypyridin-3-yl)amino)-N-((1R,2S)-2-fluorocyclopropyl)-7-((methyl-d3)amino)pyrazolo[1,5-a]pyrimidine-3-carboxamide], in assay [1], the pKd was above 9.70. Further, the inhibition at 10 µM at Tyk2 kinase domain (DH1) (compound at 10 μM, ATP 10 μM) was below 50%; at JAK2 kinase domain (JH1) (compound at 10 μM, ATP 10 μM), 50 to 70%. The negative-log IC50 (pIC50) in assay [2] was above 7.00; in assay [3], below 4.30.

In the case of `COc1ncccc1Nc1cc(NCCCN2CCOCC2)n2ncc(C(=O)N[C@@H]3C[C@@H]3F)c2n1` (stereo in doubt) [I-377, N-((1R,2S)-2-fluorocyclopropyl)-5-((2-methoxypyridin-3-yl)amino)-7-((3-morpholinopropyl)amino)pyrazolo[1,5-a]pyrimidine-3-carboxamide], the pKd in assay [1] is 9.00 to 9.70. Besides, the inhibition at 10 µM on Tyk2 kinase domain (DH1) (compound at 10 μM, ATP 10 μM) is below 50%; on JAK2 kinase domain (JH1) (compound at 10 μM, ATP 10 μM), below 50%. Besides, the pIC50 in assay [2] was 6.30 to 7.00; in assay [3] it was below 4.30.

In assay [1], `[2H]C([2H])([2H])Oc1ncccc1Nc1cc(NC)n2ncc(C(=O)N[C@@H]3CC[C@@H]3O)c2n1` (stereo in doubt) [I-391, N-(2-hydroxycyclobutyl)-5-((2-(methoxy-d3)pyridin-3-yl)amino)-7-(methylamino)pyrazolo [1,5-a]pyrimidine-3-carboxamide] gave a pKd above 9.70. Moreover, the inhibition at 10 µM on Tyk2 kinase domain (DH1) (compound at 10 μM, ATP 10 μM) was below 50%; at JAK2 kinase domain (JH1) (compound at 10 μM, ATP 10 μM), below 50%. Further, the pIC50 in assay [2] was above 7.00; in assay [3], below 4.30.

On to `[2H]C([2H])([2H])Oc1ncccc1Nc1cc(NC)n2ncc(C(=O)N[C@H]3CC[C@H]3O)c2n1` (stereo in doubt) [I-399, N-((1 S,2R)-2-hydroxycyclobutyl)-5-((2-(methoxy-d3)pyridin-3-yl)amino)-7-(methylamino) pyrazolo[1,5-a]pyrimidine-3-carboxamide], for which the pKd in assay [1] was above 9.70. Besides, on Tyk2 kinase domain (DH1) (compound at 10 μM, ATP 10 μM), the “Tyk2 JH1% Inhibition @ 10 μM” value is on record as “A (percent inhibition at 10 μM lower than 50)”. Besides, at JAK2 kinase domain (JH1) (compound at 10 μM, ATP 10 μM), the “JAK2 JH1% Inhibition @ 10 μM” value was “A (percent inhibition at 10 μM lower than 50)”. The negative-log IC50 (pIC50) in assay [2] was above 7.00; in assay [3], below 4.90.

Regarding `CNc1cc(Nc2cccn(-c3nc(C)co3)c2=O)nc2c(C(=O)N[C@@H]3CC[C@H]3O)cnn12` (stereo in doubt) [I-658, N-((1R,2R)-2-hydroxycyclobutyl)-7-(methylamino)-5-((1-(4-methyloxazol-2-yl)-2-oxo-1,2-dihydropyridin-3-yl)amino)pyrazolo[1,5-a]pyrimidine-3-carboxamide], the pKd in assay [1] is above 9.70. Moreover, the inhibition at 10 µM at Tyk2 kinase domain (DH1) (compound at 10 μM, ATP 10 μM) was below 50%; on JAK2 kinase domain (JH1) (compound at 10 μM, ATP 10 μM), below 50%. Further, the pIC50 in assay [2] is above 7.00; in assay [3] it was below 4.30.

`CNc1cc(Nc2cccn(-c3ncc(C)s3)c2=O)nc2c(C(=O)N[C@H]3CC[C@@H]3O)cnn12` (stereo in doubt) [I-676, N-(2-hydroxycyclobutyl)-7-(methylamino)-5-((1-(5-methylthiazol-2-yl)-2-oxo-1,2-dihydropyridin-3-yl)amino)pyrazolo[1,5-a]pyrimidine-3-carboxamide] showed a negative-log Kd (pKd) in assay [1] above 9.70. Moreover, the inhibition at 10 µM on Tyk2 kinase domain (DH1) (compound at 10 μM, ATP 10 μM) is below 50%; on JAK2 kinase domain (JH1) (compound at 10 μM, ATP 10 μM) it was below 50%. The negative logarithm of the IC50 (pIC50) in assay [2] was above 7.00; in assay [3] it was below 5.60.

`CNc1cc(Nc2cc(C)cc(C)c2)nc2c(C(N)=O)cnn12` [I-2, 5-((3,5-dimethylphenyl)amino)-7-(methylamino)pyrazolo[1,5-a]pyrimidine-3-carboxamide]: in assay [1], the negative logarithm of the Kd (pKd) was above 9.70. In addition, the inhibition at 10 µM at Tyk2 kinase domain (DH1) (compound at 10 μM, ATP 10 μM) is below 50%; on JAK2 kinase domain (JH1) (compound at 10 μM, ATP 10 μM), below 50%. The negative-log IC50 (pIC50) in assay [2] is above 7.00; in assay [3] it was below 4.30.

`CNc1cc(Nc2cc(F)ccc2F)nc2c(C(=O)NC3CC3)cnn12` [I-3] gave a negative-log Kd (pKd) in assay [1] above 9.70. Also, the inhibition at 10 µM at Tyk2 kinase domain (DH1) (compound at 10 μM, ATP 10 μM) is below 50%; on JAK2 kinase domain (JH1) (compound at 10 μM, ATP 10 μM) it was below 50%. Moreover, the negative-log IC50 (pIC50) was above 7.00 in assay [2] and below 4.90 in assay [3].

Take `CNc1cc(-c2cn(C3CC3)c3ncccc23)nc2c(C(=O)N[C@H]3CC[C@H]3O)cnn12` [I-992, 5-(1-cyclopropyl-1H-pyrrolo[2,3-b]pyridin-3-yl)-N-((1S,2R)-2-hydroxycyclobutyl)-7-(methylamino)pyrazolo[1,5-a]pyrimidine-3-carboxamide]: on Tyk2 kinase domain (DH1) (10 μM compound, 10 μM ATP), the “Tyk2 JH1% Inhibition @ 10 μM” value was “A (percent inhibition at 10 μM lower than 50)”. In addition, the “JAK2 JH1% Inhibition @ 10 μM” value at JAK2 kinase domain (JH1) (10 μM compound, 10 μM ATP) was “A (percent inhibition at 10 μM lower than 50)”. In addition, the pIC50 was above 7.00 in assay [2] and below 4.30 in assay [3].

Take `CNc1cc(Nc2cccn([C@@H]3CCC[C@H](OC)C3)c2=O)nc2c(C(=O)N[C@@H]3CC[C@H]3OC)cnn12` [I-995]: the “Tyk2 JH1% Inhibition @ 10 μM” value on Tyk2 kinase domain (DH1) (10 μM compound, 10 μM ATP) is listed as “A (percent inhibition at 10 μM lower than 50)”. Moreover, the “JAK2 JH1% Inhibition @ 10 μM” value on JAK2 kinase domain (JH1) (10 μM compound, 10 μM ATP) is on record as “A (percent inhibition at 10 μM lower than 50)”. Also, the pIC50 in assay [2] was above 7.00; in assay [3], below 4.30.

Source of the values: patent US10508120B2, “TYK2 inhibitors and uses thereof” (Nimbus Lakshmi, Inc., priority 2017, dated 2019).
